Measurements published in patent US12576040B2, “Ionizable lipids and methods of manufacture and use thereof” (priority 2020, dated 2026).
Marks after values point to notes of the source that are not given here.

Assay: Dynamic Light Scattering for LNP size
Format: physicochemical
Details: number-average from DLS
Description: (§1) • A: Ribogreen Assay for mRNA Encapsulation Efficiency. 1×TE Buffer and Triton Buffer (2% v/v in 1×TE Buffer) were added in duplicates into a black microplate per LNP. LNPs were diluted to 4 ng/ul in 1×DPBS pH 7.4 and added to each TE/Triton well in a ratio 1:1. Two standard curves were included in the Ribogreen Assay, one containing mRNA and 1×TE Buffer and other containing mRNA and Triton Buffer. Each one of these standard curves were used to calculate the mRNA concentration in each TE Buffer or Triton Buffer. This approach using two standard curves is more accurate for calculating the encapsulation efficiency and mRNA concentrations, in comparison to a single standard curve. Standards were included in the microplate after diluted LNPs were added to the plate. Microplates were incubated at 37° C. for 10 minutes to extract LNPs with Triton. Ribogreen reagent was diluted 1:100 in 1×TE Buffer and added to each well in a ratio 1:1. Microplates were immediately introduced into the Cytation 5 Cell Imaging Multi-Mode Reader (Biotek) to read Fluorescence (Ex485/Em528). The results are illustrated in FIG. 34. • B: Dynamic Light Scattering for LNP Size (red dots are PDI right y axis). LNPs were diluted to 6.25 ng/ul in 1×DPBS pH 7.4 and transferred into a quartz cuvette (ZEN2112) to measure size by Dynamic Light Scattering (DLS) in the Zetasizer Nano ZS (Malvern Panalytical) using particle RI of 1.45 and Absorption of 0.001 in 1×PBS at 25° C. with viscosity of 1.02 cP and RI of 1.335. Measurements were made using a 173° Backscatter angle of detection previously equilibrated to 25° C. for 30 seconds in duplicates, each with 5 runs and 10 second run duration, without delay between measurements. […] Data was analyzed using a General-Purpose model with normal resolution. The results are illustrated in FIG. 35. • C: Zeta Potential for LNP charge, pKa and pI. LNPs were diluted in a 75 mM TNS Buffer (10 mM of each of glycylglycine, acetate, imidazole, 20 mM borate, 25 mM NaCl) to contain 0.8 mg of total mRNA in 800 ul of the TNS Buffer and transferred into a Folded Capillary Zeta Cell (DTS1070) to measure size by Dynamic Light Scattering (DLS) and electrophoretic mobility by Electrophoretic Light Scattering (ELS) in the Zetasizer Nano ZS (Malvern Panalytical). Zeta potential is measured under conditions of controlled voltage to limit ohmic heating in a solution with 4 buffers with pKas spread across the pH range 3-10 with 0.5 intervals. LNP pKa is calculated by fitting the Henderson Hasselbalch equation to zeta potential data. LNP pI is found by interpolating zeta potential to zero. We use electrokinetic models to calculate Henry's function and charge of the LNP. The results are illustrated in FIG. 36. • D: TNS Assay for LNP pKa. LNPs were diluted to keep a final concentration of 75 uM of the ionizable lipid and 6 uM of TNS in a 75 mM TNS Buffer (10 mM of each of glycylglycine, acetate, imidazole, 20 mM borate, 25 mM NaCl) in order to keep a ratio TNS/ionizable of 0.08. Fluorescence TNS is measured in a solution with 4 buffers with pKas spread across the pH range 3-10 with 0.5 intervals. The pKa of the LNP was measured using the pH-dependence of fluorescence enhancement of the anionic dye TNS, higher intensity at lower pH and lower at high pH. LNP pKa is calculated by fitting the Henderson Hasselbalch equation to fluorescence data from the TNS Assay. The results are illustrated in FIG. 37. […]

SMILES	Diameter (nm)
CCCCCCCCCCC(CCCCCCCC)COC(=O)CCN(CCCCN1CCN(C)CC1)CCC(=O)OCC(CCCCCCCC)CCCCCCCCCC (centres unmarked) [BODD-C2/C4-PipZ]	55 nm

Assay: mRNA copies per LNP from molecular volume model and DLS diameter
Format: physicochemical
Details: average mRNA copies per LNP
Description: Exemplary ADDE ionizable lipids. pKas were obtained from ACDLabs Percepta for the ionizable lipid, and by zeta potential and TNS for LNPs containing the ionizable lipids. LNP isoelectric pI was obtained from the zeta potential. LNP diameter is number-average from DLS. Average mRNA copies per LNP was calculated using a molecular volume model and the DLS diameter and is proportional to LNP volume.
LNPs were diluted to 6.25 ng/μL total mRNA in PBS pH=7.4 and transferred into a quartz cuvette (ZEN2112) to measure size by Dynamic Light Scattering (DLS) in the Zetasizer Nano ZS (Malvern Panalytical) using particle RI of 1.45 and absorption of 0.001 in PBS at 25° C. with viscosity of 0.888 cP and RI of 1.335. Measurements were made using a 1730 backscatter angle of detection previously equilibrated to 25° C. for 30 seconds in duplicates, each with 5 runs and 10 second run duration, without delay between measurements. […] Data was analyzed using a General-Purpose model with normal resolution. Diameter are reported as the number-average that corresponds more closely to physical size seen in electron microscopy versus the zeta-average. A molecular volume model described previously was used to estimate the number of mRNA copies in the LNP using the number average diameter to calculate LNP volume. LNPs were diluted into the TNS buffer described above at pH ranging from 3-10 for zeta potential measurement by Electrophoretic Light Scattering (ELS) in the Zetasizer Nano ZP (Malvern Panalytical) using the same material and dispersant parameters described above and the Smoluchowski model. Each measurement had voltage set manually at 80 Volts to avoid ohmic heating that occurred if voltage was set automatically. Measurements in the disposable folded capillary cuvette with an automatic attenuation selection for photon counts were made in triplicates for 20 runs each, and 30 second delay between each replicate. Mathematica was used to fit zeta potential data to the data to the extended Henderson-Hasselbalch equation Ψ=Ψ_max−((Ψ_max−Ψ_min))/((1+10^(((pKa−pH))/n))) to provide the pKa, n and low pH and high pH zeta potential limits Ψ_max and Ψ_min, respectively. The extended model is used here, since the LNP pKa is ionization-state-dependent in a way similar to a polyelectrolyte. […] The isoelectric pI was the pH found by interpolating zeta potential to zero. Cryoelectron Microscopy

SMILES	mRNA copies
CCCCCCCCCCC(CCCCCCCC)COC(=O)CCN(CCCCN1CCN(C)CC1)CCC(=O)OCC(CCCCCCCC)CCCCCCCCCC (centres unmarked) [BODD-C2/C4-PipZ]	3.3

Assay: not given
Format: physicochemical
Details: Table 11a
Description: In certain embodiments, the pKa of the Ionizable Lipids of the Invention included in the LNP is measured by fluorescent enhancement of an anionic lipophilic dye TNS binding to the LNP containing the ionizable lipid. Prior studies have shown that the TNS pKa needs to be near 6.5 for efficient delivery to liver upon IV administration. The pKa in the aqueous phase can be predicted by software such ACDLabs Percepta, resulting in pKas that are higher than the TNS pKa. Given the importance of the LNP pKa in determining their efficiency, we developed new methods (zeta potential, ^1H NMR, modeling) to link the intrinsic pKa of the ionizable lipid to LNP ionization properties, in order to rationally design effective systems for mRNA delivery.
In certain embodiments, the hydrophilic DMG-PEG forms the shell of the LNP. The amount of nucleic acid is represented by the NP mole ratio of the amine on the ionizable lipid to the phosphate groups on the nucleic acid backbone and is typically 3-6. In certain embodiments, the pKa of the LNP to be in the 6-7 range corresponding to the pH in the early endosome. […] The pKa of the LNP was measured using the pH-dependence of fluorescence enhancement of the anionic dye TNS. In certain embodiments, the pKa-dependent endosomal release mechanism was described as an ion-pairing event between the cationic protonated ionizable lipid and anionic endosomal phospholipids where a divergent cone-shape lipid tail of the ionizable lipid facilitates membrane rupture.

SMILES	ΔpKa = Classic-Galas	ΔpKa = Classic-TNS
CCCCCCCC(=O)N(CCCN1CCCC1)C(CCCCCCCCC(=O)OC(CCCC)CCCCCC)CCCCCCCCC(=O)OC(CCCC)CCCCCC (centres unmarked) [Acuitas Compound 15]	3.38	3.98
CCCCCCCC/C=C\CCCCCCCC(=O)OCC(CN(C)C)OC(=O)CCCCCCC/C=C\CCCCCCCC (centres unmarked) [DODAP, 1,2-dioleoyl-3-dimethylammonium propane]	1.8	2.2
CCCCC/C=C\C/C=C\CCCCCCCCC(CCCCCCCC/C=C\C/C=C\CCCCC)OC(=O)CCCN(C)C [MC3]	2.66	2.96
CCCCCCCCCCOC(=O)CCCCCN(CCO)CCCCCCCC(=O)OC(CCCCCCCC)CCCCCCCC [Moderna Lipid H]	3.12	2.22

Assay: not given
Format: physicochemical
Details: LNP containing the ionizable lipid; Henderson Hasselbalch fit to zeta potential
Description: • A: Ribogreen Assay for mRNA Encapsulation Efficiency. 1×TE Buffer and Triton Buffer (2% v/v in 1×TE Buffer) were added in duplicates into a black microplate per LNP. LNPs were diluted to 4 ng/ul in 1×DPBS pH 7.4 and added to each TE/Triton well in a ratio 1:1. Two standard curves were included in the Ribogreen Assay, one containing mRNA and 1×TE Buffer and other containing mRNA and Triton Buffer. Each one of these standard curves were used to calculate the mRNA concentration in each TE Buffer or Triton Buffer. This approach using two standard curves is more accurate for calculating the encapsulation efficiency and mRNA concentrations, in comparison to a single standard curve. Standards were included in the microplate after diluted LNPs were added to the plate. Microplates were incubated at 37° C. for 10 minutes to extract LNPs with Triton. Ribogreen reagent was diluted 1:100 in 1×TE Buffer and added to each well in a ratio 1:1. Microplates were immediately introduced into the Cytation 5 Cell Imaging Multi-Mode Reader (Biotek) to read Fluorescence (Ex485/Em528). The results are illustrated in FIG. 34. • B: Dynamic Light Scattering for LNP Size (red dots are PDI right y axis). LNPs were diluted to 6.25 ng/ul in 1×DPBS pH 7.4 and transferred into a quartz cuvette (ZEN2112) to measure size by Dynamic Light Scattering (DLS) in the Zetasizer Nano ZS (Malvern Panalytical) using particle RI of 1.45 and Absorption of 0.001 in 1×PBS at 25° C. with viscosity of 1.02 cP and RI of 1.335. Measurements were made using a 173° Backscatter angle of detection previously equilibrated to 25° C. for 30 seconds in duplicates, each with 5 runs and 10 second run duration, without delay between measurements. […] Data was analyzed using a General-Purpose model with normal resolution. The results are illustrated in FIG. 35. • C: Zeta Potential for LNP charge, pKa and pI. LNPs were diluted in a 75 mM TNS Buffer (10 mM of each of glycylglycine, acetate, imidazole, 20 mM borate, 25 mM NaCl) to contain 0.8 mg of total mRNA in 800 ul of the TNS Buffer and transferred into a Folded Capillary Zeta Cell (DTS1070) to measure size by Dynamic Light Scattering (DLS) and electrophoretic mobility by Electrophoretic Light Scattering (ELS) in the Zetasizer Nano ZS (Malvern Panalytical). Zeta potential is measured under conditions of controlled voltage to limit ohmic heating in a solution with 4 buffers with pKas spread across the pH range 3-10 with 0.5 intervals. LNP pKa is calculated by fitting the Henderson Hasselbalch equation to zeta potential data. LNP pI is found by interpolating zeta potential to zero. We use electrokinetic models to calculate Henry's function and charge of the LNP. The results are illustrated in FIG. 36. • D: TNS Assay for LNP pKa. LNPs were diluted to keep a final concentration of 75 uM of the ionizable lipid and 6 uM of TNS in a 75 mM TNS Buffer (10 mM of each of glycylglycine, acetate, imidazole, 20 mM borate, 25 mM NaCl) in order to keep a ratio TNS/ionizable of 0.08. Fluorescence TNS is measured in a solution with 4 buffers with pKas spread across the pH range 3-10 with 0.5 intervals. The pKa of the LNP was measured using the pH-dependence of fluorescence enhancement of the anionic dye TNS, higher intensity at lower pH and lower at high pH. LNP pKa is calculated by fitting the Henderson Hasselbalch equation to fluorescence data from the TNS Assay. The results are illustrated in FIG. 37.
LNPs were diluted to 6.25 ng/μL total mRNA in PBS pH=7.4 and transferred into a quartz cuvette (ZEN2112) to measure size by Dynamic Light Scattering (DLS) in the Zetasizer Nano ZS (Malvern Panalytical) using particle RI of 1.45 and absorption of 0.001 in PBS at 25° C. with viscosity of 0.888 cP and RI of 1.335. Measurements were made using a 1730 backscatter angle of detection previously equilibrated to 25° C. for 30 seconds in duplicates, each with 5 runs and 10 second run duration, without delay between measurements. […]

SMILES	pKa,ZP
CCCCCCCCCCC(CCCCCCCC)COC(=O)CCN(CCCCN1CCN(C)CC1)CCC(=O)OCC(CCCCCCCC)CCCCCCCCCC (centres unmarked) [BODD-C2/C4-PipZ]	4.9*

Same assay, conditions: LNP isoelectric pI from zeta potential

SMILES	pI, ZP
CCCCCCCCCCC(CCCCCCCC)COC(=O)CCN(CCCCN1CCN(C)CC1)CCC(=O)OCC(CCCCCCCC)CCCCCCCCCC (centres unmarked) [BODD-C2/C4-PipZ]	5.8

Assay: not given
Format: physicochemical
Details: LNP containing the ionizable lipid
Description: as §1, with “LNPs were diluted to keep a final concentration of 75 uM of the ionizable lipid and 6 uM of TNS in a 75 mM TNS Buffer (10 mM of each of glycylglycine, acetate, imidazole, 20 mM borate, 25 mM NaCl) in order to keep a ratio TNS/ionizable of 0.08.” left out, “Assay.” for “Assay. The results are illustrated in FIG. 37.”
LNP pKa was determined using the TNS assay. […] The Cytation 5 Cell Imaging Multi-Mode Reader (Biotek) was used to read Fluorescence (Ex321/Em445). The pH was measured in each well after TNS addition. […]

SMILES	pKa, TNS
CCCCCCCCCCC(CCCCCCCC)COC(=O)CCN(CCCCN1CCN(C)CC1)CCC(=O)OCC(CCCCCCCC)CCCCCCCCCC (centres unmarked) [BODD-C2/C4-PipZ]	7.0

Assay: not given
Details: Table 11a; known ionizable lipids, LNP pKa; cited from earlier work

SMILES	pKa, TNS
CCCCCCCC(=O)N(CCCN1CCCC1)C(CCCCCCCCC(=O)OC(CCCC)CCCCCC)CCCCCCCCC(=O)OC(CCCC)CCCCCC (centres unmarked) [Acuitas Compound 15]	6.32
CCCCCCCC/C=C\CCCCCCCC(=O)OCC(CN(C)C)OC(=O)CCCCCCC/C=C\CCCCCCCC (centres unmarked) [DODAP, 1,2-dioleoyl-3-dimethylammonium propane]	5.8
CCCCC/C=C\C/C=C\CCCCCCCCC(CCCCCCCC/C=C\C/C=C\CCCCC)OC(=O)CCCN(C)C [MC3]	6.44
CCCCCCCCCCOC(=O)CCCCCN(CCO)CCCCCCCC(=O)OC(CCCCCCCC)CCCCCCCC [Moderna Lipid H]	6.68
